Assays:
[1] = In-vitro release of 5-FU from partially encapsulated multilayer polymeric films
Method: In-Vitro release of 5-Fluoro-Uracil (5-FU) has been quantified over time from Partially Encapsulated Multilayer Polymeric films.
The resulting test articles, 2.5 mm diameter×1.25 mm high, were immersed in a PBS solution supplemented by 2 percent FBS onto a shaker in an incubator at 37 degrees Celsius. Release of 5-FU was quantified by HPLC-UV as follows: after filtration, aliquots were injected onto an Agilent 1100 column (50×4.6 mm×3 um with guard column). The 5-FU detection was performed via a UV Detector (Wavelength: 265 nm). The flow rate was 1.0 mL/min. The mobile phase was a mixture of TFA (0.1 percent) and Acetonitrile.

[2] = In-vitro release of bimatoprost from fully encapsulated multilayer polymeric films; assay type: physicochemical; conditions: for release profile of bimatoprost: PBS + 2 percent FBS, 37 degrees Celsius
Method: In Vitro release studies were performed using the fully encapsulated polymeric films (wherein the carrier discs are fully encapsulated within the surrounding barrier layers) containing bimatoprost as prepared in Example 6.

[3] = Thermal decomposition of bioactive agent; assay type: physicochemical
[4] = partially encapsulated film, 30 percent w/w
[5] = fully encapsulated film laminated at 140 degrees Fahrenheit (60 degrees Celsius)

SMILES: O=c1[nH]cc(F)c(=O)[nH]1 [5-FU, 5-Fluoro-Uracil]
- release profile of 5-FU ([1]; fully encapsulated films with no adhesive layers): delayed sustained release
- burst duration [1, 4]: 2 days
- rest period after burst [1, 4]: approximately 9 days
- start of delayed sustained release [1, 4]: ~11 days
- release profile of 5-FU ([1]; partially encapsulated film, 30 percent w/w, 2.5 mm disk, PBS + 2 percent FBS, 37 degrees Celsius): bimodal release profile

SMILES: CCNC(=O)CCC/C=C\C[C@@H]1[C@@H](/C=C/[C@@H](O)CCc2ccccc2)[C@H](O)C[C@@H]1O [bimatoprost]
- release profile of bimatoprost ([2]; fully encapsulated film laminated at 131 degrees Fahrenheit (55 degrees Celsius)): zero-order release
- period of no or undetectable release [2, 5]: 10 days
- release profile of bimatoprost [2, 5]: delayed sustained release
- drug released in the first 24 hours ([2]; monolayer 2 mm diameter carrier film compression molded at 152 degrees Fahrenheit (67 degrees Celsius)): 99%
- decomposition temperature [3]: 70 degrees Celsius

Source: US20130164347A1, “MULTILAYER POLYMERIC DRUG DELIVERY SYSTEM” (priority 2011, published 2013)
